Experimental data: the kinase profiling compilation of Christmann-Franck et al. (2016)
Blank lines part the entries; values can stand above or below the compound they belong to.

Columns and labels:
Assay in all cases: radiometric filter-binding kinase assay
[1] = molecular target: SRC (human) (UniProt P12931)
[2] = molecular target: CaMK1 (human) (UniProt Q14012)
[3] = molecular target: MAPK13 (human) (UniProt O15264)
[4] = molecular target: IGF1R (human) (UniProt P08069)
[5] = molecular target: MKNK1 (human) (UniProt Q9BUB5)
[6] = molecular target: CAMKK2 (human) (UniProt Q96RR4)
[7] = molecular target: YES1 (human) (UniProt P07947)
[8] = molecular target: PIM2 (human) (UniProt Q9P1W9)
[9] = molecular target: MARK3 (human) (UniProt P27448)
[10] = molecular target: PHKG1 (human) (UniProt Q16816)
[11] = molecular target: SYK (human) (UniProt P43405)
[12] = molecular target: CDK2 CCNA2 (human) (UniProt P20248+P24941)
[13] = test system: PRKAA1 or PRKAA2 (rat); conditions: accession and sequence are those of the human protein
[14] = test system: AKT2 (human), P31751 [S474D]
[15] = molecular target: INSRR (human) (UniProt P14616)
INSRR (human), sequence (P14616 whole entry, looked up): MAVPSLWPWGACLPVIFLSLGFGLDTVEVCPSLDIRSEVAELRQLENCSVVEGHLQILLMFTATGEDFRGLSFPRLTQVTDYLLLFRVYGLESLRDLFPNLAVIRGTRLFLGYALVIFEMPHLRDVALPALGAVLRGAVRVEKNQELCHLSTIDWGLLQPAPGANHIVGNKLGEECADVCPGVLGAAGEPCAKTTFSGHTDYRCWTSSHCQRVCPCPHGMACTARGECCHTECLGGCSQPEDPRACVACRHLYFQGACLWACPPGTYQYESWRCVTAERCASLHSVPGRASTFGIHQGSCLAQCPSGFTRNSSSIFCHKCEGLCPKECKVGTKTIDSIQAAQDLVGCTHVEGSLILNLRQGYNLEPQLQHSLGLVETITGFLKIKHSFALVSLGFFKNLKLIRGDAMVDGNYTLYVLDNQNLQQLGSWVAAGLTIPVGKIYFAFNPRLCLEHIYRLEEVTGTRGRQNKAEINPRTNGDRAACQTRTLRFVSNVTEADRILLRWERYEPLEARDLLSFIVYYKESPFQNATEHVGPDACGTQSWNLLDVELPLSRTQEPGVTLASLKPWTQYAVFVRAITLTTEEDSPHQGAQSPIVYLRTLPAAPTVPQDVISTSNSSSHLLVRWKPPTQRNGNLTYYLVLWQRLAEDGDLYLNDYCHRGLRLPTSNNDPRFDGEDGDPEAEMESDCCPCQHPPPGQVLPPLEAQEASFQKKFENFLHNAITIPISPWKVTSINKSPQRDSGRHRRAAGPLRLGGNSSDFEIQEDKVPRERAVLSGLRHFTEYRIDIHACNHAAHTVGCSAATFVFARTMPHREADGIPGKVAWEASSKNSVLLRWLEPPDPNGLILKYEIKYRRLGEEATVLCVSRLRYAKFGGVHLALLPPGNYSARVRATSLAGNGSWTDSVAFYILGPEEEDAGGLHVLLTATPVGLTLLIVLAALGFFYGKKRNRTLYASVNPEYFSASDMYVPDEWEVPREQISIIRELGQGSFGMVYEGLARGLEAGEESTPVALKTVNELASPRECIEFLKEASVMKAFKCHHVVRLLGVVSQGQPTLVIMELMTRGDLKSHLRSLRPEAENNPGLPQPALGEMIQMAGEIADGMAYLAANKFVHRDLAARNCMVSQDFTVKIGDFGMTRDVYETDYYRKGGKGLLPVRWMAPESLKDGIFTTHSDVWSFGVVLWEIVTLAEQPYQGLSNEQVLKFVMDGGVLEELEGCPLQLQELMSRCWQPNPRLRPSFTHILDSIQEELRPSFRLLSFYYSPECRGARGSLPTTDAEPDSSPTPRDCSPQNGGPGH

[16] = test system: LCK (mouse); conditions: accession and sequence are those of the human protein
[17] = molecular target: INSR (human) (UniProt P06213)
INSR (human), sequence (P06213 whole entry, looked up): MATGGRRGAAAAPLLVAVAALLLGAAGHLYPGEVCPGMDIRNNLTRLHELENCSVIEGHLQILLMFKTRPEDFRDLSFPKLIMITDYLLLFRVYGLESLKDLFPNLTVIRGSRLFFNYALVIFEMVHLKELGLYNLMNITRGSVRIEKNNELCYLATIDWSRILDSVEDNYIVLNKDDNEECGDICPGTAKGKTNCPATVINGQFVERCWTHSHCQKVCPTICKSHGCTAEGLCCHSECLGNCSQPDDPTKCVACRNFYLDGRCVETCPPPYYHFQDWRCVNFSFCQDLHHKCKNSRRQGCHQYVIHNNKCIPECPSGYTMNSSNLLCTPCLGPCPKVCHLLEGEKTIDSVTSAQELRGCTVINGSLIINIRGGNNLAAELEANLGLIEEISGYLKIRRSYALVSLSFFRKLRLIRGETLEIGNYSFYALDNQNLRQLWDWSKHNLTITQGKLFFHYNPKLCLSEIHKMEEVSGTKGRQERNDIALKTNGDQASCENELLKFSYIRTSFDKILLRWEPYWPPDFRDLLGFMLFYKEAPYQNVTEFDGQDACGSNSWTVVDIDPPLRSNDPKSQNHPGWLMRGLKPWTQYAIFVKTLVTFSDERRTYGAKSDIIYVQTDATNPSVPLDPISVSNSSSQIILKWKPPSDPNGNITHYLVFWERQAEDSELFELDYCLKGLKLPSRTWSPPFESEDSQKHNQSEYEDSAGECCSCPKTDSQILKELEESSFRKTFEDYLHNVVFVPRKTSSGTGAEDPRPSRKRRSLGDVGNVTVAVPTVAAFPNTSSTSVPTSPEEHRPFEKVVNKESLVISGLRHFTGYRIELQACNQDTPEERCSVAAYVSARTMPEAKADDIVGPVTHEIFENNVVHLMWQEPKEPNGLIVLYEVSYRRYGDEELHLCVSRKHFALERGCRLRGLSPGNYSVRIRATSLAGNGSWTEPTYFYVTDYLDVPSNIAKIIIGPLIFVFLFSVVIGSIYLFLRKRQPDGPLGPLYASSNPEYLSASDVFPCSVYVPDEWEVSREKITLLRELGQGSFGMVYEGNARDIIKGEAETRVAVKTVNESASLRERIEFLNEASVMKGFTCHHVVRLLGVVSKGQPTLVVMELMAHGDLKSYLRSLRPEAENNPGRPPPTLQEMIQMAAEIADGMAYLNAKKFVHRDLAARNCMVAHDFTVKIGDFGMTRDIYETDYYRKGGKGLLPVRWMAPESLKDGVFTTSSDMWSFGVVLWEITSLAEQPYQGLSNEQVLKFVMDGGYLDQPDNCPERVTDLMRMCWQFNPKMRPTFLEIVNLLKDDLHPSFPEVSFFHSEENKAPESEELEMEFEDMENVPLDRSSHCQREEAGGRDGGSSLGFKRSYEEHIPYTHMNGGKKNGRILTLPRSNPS

[18] = molecular target: PRKCZ (human) (UniProt Q05513)
PRKCZ (human), sequence (Q05513 whole entry, looked up): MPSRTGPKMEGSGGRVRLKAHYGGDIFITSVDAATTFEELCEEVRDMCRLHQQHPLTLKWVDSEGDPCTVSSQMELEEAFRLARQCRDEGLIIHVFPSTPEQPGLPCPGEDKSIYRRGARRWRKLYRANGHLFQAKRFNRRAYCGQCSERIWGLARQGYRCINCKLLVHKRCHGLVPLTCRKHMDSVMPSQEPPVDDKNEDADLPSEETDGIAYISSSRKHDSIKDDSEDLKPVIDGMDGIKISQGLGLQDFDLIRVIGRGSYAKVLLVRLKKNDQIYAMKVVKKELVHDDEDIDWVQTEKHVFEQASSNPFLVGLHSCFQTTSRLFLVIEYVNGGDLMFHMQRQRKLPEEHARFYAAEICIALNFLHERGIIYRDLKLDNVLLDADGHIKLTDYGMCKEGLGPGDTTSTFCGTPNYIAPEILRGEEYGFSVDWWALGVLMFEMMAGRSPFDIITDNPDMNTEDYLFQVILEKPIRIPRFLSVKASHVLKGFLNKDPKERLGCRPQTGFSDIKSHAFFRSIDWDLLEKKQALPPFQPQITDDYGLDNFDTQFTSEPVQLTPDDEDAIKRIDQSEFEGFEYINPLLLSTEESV

[19] = molecular target: MAP2K1 (human) (UniProt Q02750)
MAP2K1 (human), sequence (Q02750 whole entry, looked up): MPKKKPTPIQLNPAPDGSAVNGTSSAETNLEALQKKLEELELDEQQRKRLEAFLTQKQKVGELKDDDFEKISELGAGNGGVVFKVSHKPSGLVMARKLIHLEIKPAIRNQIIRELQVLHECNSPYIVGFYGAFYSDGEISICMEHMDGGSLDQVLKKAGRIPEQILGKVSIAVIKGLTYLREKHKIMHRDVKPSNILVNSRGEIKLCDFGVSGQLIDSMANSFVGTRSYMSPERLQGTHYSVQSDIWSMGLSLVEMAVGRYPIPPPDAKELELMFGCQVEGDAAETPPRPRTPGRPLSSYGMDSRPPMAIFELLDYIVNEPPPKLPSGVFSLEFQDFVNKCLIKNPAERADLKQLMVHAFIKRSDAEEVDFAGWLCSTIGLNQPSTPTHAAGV

[20] = molecular target: PRKACA (human) (UniProt P17612)
[21] = molecular target: CHEK1 (human) (UniProt O14757)
CHEK1 (human), sequence (O14757 whole entry, looked up): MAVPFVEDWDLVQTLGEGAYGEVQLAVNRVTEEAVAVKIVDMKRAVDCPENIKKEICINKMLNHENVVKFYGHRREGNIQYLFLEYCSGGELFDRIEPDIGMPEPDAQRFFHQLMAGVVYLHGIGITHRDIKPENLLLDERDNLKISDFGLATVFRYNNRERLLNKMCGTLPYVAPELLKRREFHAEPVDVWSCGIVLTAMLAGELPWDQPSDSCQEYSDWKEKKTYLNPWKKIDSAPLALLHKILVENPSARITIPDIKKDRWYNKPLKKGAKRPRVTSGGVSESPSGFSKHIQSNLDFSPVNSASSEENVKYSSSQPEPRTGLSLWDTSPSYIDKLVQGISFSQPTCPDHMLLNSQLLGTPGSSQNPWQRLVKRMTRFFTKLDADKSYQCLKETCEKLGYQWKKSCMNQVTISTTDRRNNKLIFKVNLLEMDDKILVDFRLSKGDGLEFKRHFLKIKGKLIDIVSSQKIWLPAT

[22] = molecular target: MST4 (human) (UniProt Q9P289)
[23] = molecular target: EPHB3 (human) (UniProt P54753)
[24] = molecular target: CSNK2A1 (human) (UniProt P68400)
[25] = molecular target: PAK4 (human) (UniProt O96013)
[26] = molecular target: DYRK1A (human) (UniProt Q13627)
[27] = molecular target: MAPK10 (human) (UniProt P53779)
MAPK10 (human), sequence (P53779 whole entry, looked up): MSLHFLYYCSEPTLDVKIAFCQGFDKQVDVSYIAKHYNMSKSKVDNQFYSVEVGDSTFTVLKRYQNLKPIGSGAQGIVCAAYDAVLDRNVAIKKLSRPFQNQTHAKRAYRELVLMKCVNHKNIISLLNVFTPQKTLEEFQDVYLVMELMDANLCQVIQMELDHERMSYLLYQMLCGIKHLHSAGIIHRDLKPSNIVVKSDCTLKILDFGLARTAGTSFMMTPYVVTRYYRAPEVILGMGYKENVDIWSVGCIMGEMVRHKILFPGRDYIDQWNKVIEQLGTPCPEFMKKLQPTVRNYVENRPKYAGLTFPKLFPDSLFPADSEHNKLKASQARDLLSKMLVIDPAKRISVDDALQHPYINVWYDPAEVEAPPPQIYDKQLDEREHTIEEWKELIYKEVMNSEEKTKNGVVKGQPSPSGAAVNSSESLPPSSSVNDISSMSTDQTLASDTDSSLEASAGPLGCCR

[28] = molecular target: AURKB (human) (UniProt Q96GD4)
AURKB (human), sequence (Q96GD4 whole entry, looked up): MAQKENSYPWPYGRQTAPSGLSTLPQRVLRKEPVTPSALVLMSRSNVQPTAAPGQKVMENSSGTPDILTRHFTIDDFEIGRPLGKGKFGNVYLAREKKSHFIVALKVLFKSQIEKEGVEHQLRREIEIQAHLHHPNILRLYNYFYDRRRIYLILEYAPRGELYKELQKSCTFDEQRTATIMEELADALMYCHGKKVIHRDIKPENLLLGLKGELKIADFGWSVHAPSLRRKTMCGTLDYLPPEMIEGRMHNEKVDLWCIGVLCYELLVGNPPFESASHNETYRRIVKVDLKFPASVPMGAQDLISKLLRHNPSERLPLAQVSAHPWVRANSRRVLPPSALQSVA

residual activity ([1]; compound 0.1 µM): 41%
residual activity ([1]; compound 1.0 µM): 7%
residual activity ([1]; compound 10.0 µM): 1%
residual activity ([2]; compound 0.1 µM): 112%
residual activity ([2]; compound 1.0 µM): 69%
residual activity ([2]; compound 10.0 µM): 19%
residual activity ([3]; compound 0.1 µM): 85%
residual activity ([3]; compound 1.0 µM): 62%
residual activity ([3]; compound 10.0 µM): 22%
residual activity ([4]; compound 1.0 µM): 33%
residual activity ([4]; compound 10.0 µM): 1%
residual activity ([5]; compound 0.1 µM): 80%
residual activity ([5]; compound 1.0 µM): 54%
residual activity ([5]; compound 10.0 µM): 30%
residual activity ([6]; compound 0.1 µM): 67%
residual activity ([6]; compound 1.0 µM): 41%
residual activity ([6]; compound 10.0 µM): 35%
residual activity ([7]; compound 0.1 µM): 32%
residual activity ([7]; compound 1.0 µM): 8%
residual activity ([7]; compound 10.0 µM): 3%
residual activity ([8]; compound 0.1 µM): 76%
residual activity ([8]; compound 1.0 µM): 34%
residual activity ([8]; compound 10.0 µM): 8%
residual activity ([9]; compound 0.1 µM): 16%
residual activity ([9]; compound 1.0 µM): 5%
residual activity ([9]; compound 10.0 µM): 3%
residual activity ([10]; compound 0.1 µM): 13%
residual activity ([10]; compound 1.0 µM): 1%
residual activity ([10]; compound 10.0 µM): 0%
residual activity ([11]; compound 1.0 µM): 40%
residual activity ([11]; compound 10.0 µM): 7%
residual activity ([12]; compound 0.1 µM): 63%
residual activity ([12]; compound 1.0 µM): 14%
residual activity ([12]; compound 10.0 µM): 6%
residual activity ([13]; compound 0.1 µM): 5%
residual activity ([13]; compound 1.0 µM): 6%
residual activity ([13]; compound 10.0 µM): 4%
residual activity ([14]; compound 0.1 µM): 88%
residual activity ([14]; compound 1.0 µM): 77%
residual activity ([14]; compound 10.0 µM): 36%
residual activity ([15]; compound 0.1 µM): 35%
residual activity ([15]; compound 1.0 µM): 16%
residual activity ([15]; compound 10.0 µM): 5%
residual activity ([16]; compound 0.1 µM): 44%
residual activity ([16]; compound 1.0 µM): 10%
residual activity ([16]; compound 10.0 µM): 3%
residual activity ([17]; compound 0.1 µM): 112%
residual activity ([17]; compound 1.0 µM): 101%
residual activity ([17]; compound 10.0 µM): 26%
residual activity ([18]; compound 0.1 µM): 85%
residual activity ([18]; compound 1.0 µM): 66%
residual activity ([18]; compound 10.0 µM): 21%
residual activity ([19]; compound 0.1 µM): 8%
residual activity ([19]; compound 1.0 µM): 1%
residual activity ([19]; compound 10.0 µM): 2%
residual activity ([20]; compound 0.1 µM): 78%
residual activity ([20]; compound 1.0 µM): 66%
residual activity ([20]; compound 10.0 µM): 32%
residual activity ([21]; compound 0.1 µM): 85%
residual activity ([21]; compound 1.0 µM): 4%
residual activity ([21]; compound 10.0 µM): 1%
residual activity ([22]; compound 1.0 µM): 18%
residual activity ([22]; compound 10.0 µM): 21%
residual activity ([23]; compound 0.1 µM): 107%
residual activity ([23]; compound 1.0 µM): 90%
residual activity ([23]; compound 10.0 µM): 53%
residual activity ([24]; compound 0.1 µM): 93%
residual activity ([24]; compound 1.0 µM): 65%
residual activity ([24]; compound 10.0 µM): 21%
residual activity ([25]; compound 0.1 µM): 64%
residual activity ([25]; compound 1.0 µM): 31%
residual activity ([26]; compound 0.1 µM): 42%
residual activity ([26]; compound 1.0 µM): 11%
Compound: NC(=O)Nc1ccc2c(c1)/C(=C/c1cc(-c3cccnc3)c[nH]1)C(=O)N2

residual activity ([1]; compound 1.0 µM): 96%
residual activity ([1]; compound 10.0 µM): 63%
residual activity ([2]; compound 1.0 µM): 103%
residual activity ([2]; compound 10.0 µM): 97%
residual activity ([3]; compound 1.0 µM): 104%
residual activity ([3]; compound 10.0 µM): 109%
residual activity ([27]; compound 1.0 µM): 104%
residual activity ([27]; compound 10.0 µM): 104%
residual activity ([5]; compound 1.0 µM): 95%
residual activity ([5]; compound 10.0 µM): 92%
residual activity ([6]; compound 1.0 µM): 112%
residual activity ([6]; compound 10.0 µM): 120%
residual activity ([8]; compound 1.0 µM): 100%
residual activity ([8]; compound 10.0 µM): 109%
residual activity ([9]; compound 1.0 µM): 82%
residual activity ([9]; compound 10.0 µM): 79%
residual activity ([10]; compound 1.0 µM): 113%
residual activity ([10]; compound 10.0 µM): 119%
residual activity ([12]; compound 1.0 µM): 98%
residual activity ([12]; compound 10.0 µM): 96%
residual activity ([13]; compound 1.0 µM): 105%
residual activity ([13]; compound 10.0 µM): 107%
residual activity ([14]; compound 1.0 µM): 103%
residual activity ([14]; compound 10.0 µM): 103%
residual activity ([16]; compound 1.0 µM): 112%
residual activity ([16]; compound 10.0 µM): 81%
residual activity ([18]; compound 1.0 µM): 97%
residual activity ([18]; compound 10.0 µM): 102%
residual activity ([28]; compound 1.0 µM): 98%
residual activity ([28]; compound 10.0 µM): 82%
residual activity ([19]; compound 1.0 µM): 108%
residual activity ([19]; compound 10.0 µM): 104%
residual activity ([20]; compound 1.0 µM): 106%
residual activity ([20]; compound 10.0 µM): 107%
residual activity ([21]; compound 1.0 µM): 118%
residual activity ([21]; compound 10.0 µM): 112%
residual activity ([24]; compound 1.0 µM): 91%
residual activity ([24]; compound 10.0 µM): 96%
residual activity ([25]; compound 1.0 µM): 86%
residual activity ([25]; compound 10.0 µM): 97%
residual activity ([26]; compound 1.0 µM): 105%
residual activity ([26]; compound 10.0 µM): 101%
Compound: Cn1nc(Nc2ccc(F)cc2)c2c(N)ncnc21

residual activity ([1]; compound 0.1 µM): 104%
residual activity ([1]; compound 1.0 µM): 95%
residual activity ([1]; compound 10.0 µM): 63%
residual activity ([2]; compound 0.1 µM): 79%
residual activity ([2]; compound 1.0 µM): 55%
residual activity ([2]; compound 10.0 µM): 16%
residual activity ([3]; compound 0.1 µM): 89%
residual activity ([3]; compound 1.0 µM): 65%
residual activity ([3]; compound 10.0 µM): 37%
residual activity ([27]; compound 0.1 µM): 90%
residual activity ([27]; compound 1.0 µM): 97%
residual activity ([27]; compound 10.0 µM): 87%
residual activity ([5]; compound 0.1 µM): 94%
residual activity ([5]; compound 1.0 µM): 80%
residual activity ([5]; compound 10.0 µM): 62%
residual activity ([6]; compound 0.1 µM): 113%
residual activity ([6]; compound 1.0 µM): 68%
residual activity ([6]; compound 10.0 µM): 37%
residual activity ([8]; compound 0.1 µM): 38%
residual activity ([8]; compound 1.0 µM): 6%
residual activity ([8]; compound 10.0 µM): 1%
residual activity ([9]; compound 0.1 µM): 93%
residual activity ([9]; compound 1.0 µM): 68%
residual activity ([9]; compound 10.0 µM): 33%
residual activity ([10]; compound 0.1 µM): 77%
residual activity ([10]; compound 1.0 µM): 17%
residual activity ([10]; compound 10.0 µM): 11%
residual activity ([12]; compound 0.1 µM): 95%
residual activity ([12]; compound 1.0 µM): 90%
residual activity ([12]; compound 10.0 µM): 81%
residual activity ([13]; compound 0.1 µM): 64%
residual activity ([13]; compound 1.0 µM): 19%
residual activity ([13]; compound 10.0 µM): 24%
residual activity ([14]; compound 0.1 µM): 80%
residual activity ([14]; compound 1.0 µM): 44%
residual activity ([14]; compound 10.0 µM): 13%
residual activity ([16]; compound 0.1 µM): 103%
residual activity ([16]; compound 1.0 µM): 75%
residual activity ([16]; compound 10.0 µM): 41%
residual activity ([18]; compound 0.1 µM): 118%
residual activity ([18]; compound 1.0 µM): 74%
residual activity ([18]; compound 10.0 µM): 62%
residual activity ([28]; compound 0.1 µM): 17%
residual activity ([28]; compound 1.0 µM): 14%
residual activity ([28]; compound 10.0 µM): 12%
residual activity ([19]; compound 0.1 µM): 82%
residual activity ([19]; compound 1.0 µM): 27%
residual activity ([19]; compound 10.0 µM): 16%
residual activity ([20]; compound 0.1 µM): 42%
residual activity ([20]; compound 1.0 µM): 7%
residual activity ([20]; compound 10.0 µM): 2%
residual activity ([21]; compound 0.1 µM): 56%
residual activity ([21]; compound 1.0 µM): 13%
residual activity ([21]; compound 10.0 µM): 4%
residual activity ([24]; compound 0.1 µM): 105%
residual activity ([24]; compound 1.0 µM): 83%
residual activity ([24]; compound 10.0 µM): 71%
residual activity ([25]; compound 0.1 µM): 99%
residual activity ([25]; compound 1.0 µM): 82%
residual activity ([25]; compound 10.0 µM): 66%
residual activity ([26]; compound 0.1 µM): 96%
residual activity ([26]; compound 1.0 µM): 68%
residual activity ([26]; compound 10.0 µM): 41%
Compound: COc1ccc2c(c1)c1c3c(c4c5ccccc5n(C)c4c1n2CC(O)CN(C)C)C(=O)NC3=O (stereo not given)

residual activity ([1]; compound 1.0 µM): 97%
residual activity ([1]; compound 10.0 µM): 100%
residual activity ([2]; compound 1.0 µM): 92%
residual activity ([2]; compound 10.0 µM): 89%
residual activity ([3]; compound 1.0 µM): 101%
residual activity ([3]; compound 10.0 µM): 105%
residual activity ([27]; compound 1.0 µM): 101%
residual activity ([27]; compound 10.0 µM): 102%
residual activity ([5]; compound 1.0 µM): 92%
residual activity ([5]; compound 10.0 µM): 96%
residual activity ([6]; compound 1.0 µM): 125%
residual activity ([6]; compound 10.0 µM): 117%
residual activity ([8]; compound 1.0 µM): 115%
residual activity ([8]; compound 10.0 µM): 113%
residual activity ([9]; compound 1.0 µM): 89%
residual activity ([9]; compound 10.0 µM): 94%
residual activity ([10]; compound 1.0 µM): 106%
residual activity ([10]; compound 10.0 µM): 101%
residual activity ([12]; compound 1.0 µM): 97%
residual activity ([12]; compound 10.0 µM): 91%
residual activity ([13]; compound 1.0 µM): 111%
residual activity ([13]; compound 10.0 µM): 114%
residual activity ([14]; compound 1.0 µM): 95%
residual activity ([14]; compound 10.0 µM): 100%
residual activity ([16]; compound 1.0 µM): 125%
residual activity ([16]; compound 10.0 µM): 131%
residual activity ([18]; compound 1.0 µM): 89%
residual activity ([18]; compound 10.0 µM): 112%
residual activity ([28]; compound 1.0 µM): 96%
residual activity ([28]; compound 10.0 µM): 87%
residual activity ([19]; compound 1.0 µM): 187%
residual activity ([19]; compound 10.0 µM): 191%
residual activity ([20]; compound 1.0 µM): 106%
residual activity ([20]; compound 10.0 µM): 98%
residual activity ([21]; compound 1.0 µM): 109%
residual activity ([21]; compound 10.0 µM): 115%
residual activity ([24]; compound 1.0 µM): 93%
residual activity ([24]; compound 10.0 µM): 93%
residual activity ([25]; compound 1.0 µM): 86%
residual activity ([25]; compound 10.0 µM): 95%
residual activity ([26]; compound 1.0 µM): 90%
residual activity ([26]; compound 10.0 µM): 101%
Compound: Cc1cccc(Nc2nn(C)c3ncnc(N)c23)c1
